Measured values taken from patent US20070015823A1, “Ambruticin VS compounds” (priority 2004, published 2007).
Converted amounts (≈) assume the structure as drawn.

Assays:
A. flavus ATCC 204304 = assay: Broth microdilution antifungal susceptibility, NCCLS M38-A; format: cell-based, Aspergillus flavus; conditions: minimal concentration inhibiting >95% growth; average of at least two assays (except I-l and I-x)
A. fumigatus ATCC 204305 = assay: as above; format: cell-based, Aspergillus fumigatus; conditions: minimal concentration inhibiting >95% growth; average of at least two assays (except I-l and I-x)
Blastomyces dermatitidis = assay: as above; format: cell-based
Histoplasma capsulatum = format: cell-based
Fusarium solani = assay: Broth microdilution antifungal susceptibility, NCCLS M38-A; format: cell-based; conditions: strain 96-1; 50% growth inhibition; range = minimum and maximum of multiple assays
S. apiospermum = assay: as above; format: cell-based, Scedosporium apiospermum
[1] = system: Trichophyton mentagrophytes; assay: Dermatophyte broth microdilution, NCCLS M38-A; format: cell-based
Microsporum gypseum = assay: Dermatophyte broth microdilution, NCCLS M38-A; format: cell-based
[2] = system: Trichophyton interdigitale; assay: Dermatophyte broth microdilution, NCCLS M38-A; format: cell-based
Epidermophyton floccosum = assay: Dermatophyte broth microdilution, NCCLS M38-A; format: cell-based
Trichophyton rubrum = assay: Dermatophyte broth microdilution, NCCLS M38-A; format: cell-based
Microsporum canis = assay: Dermatophyte broth microdilution, NCCLS M38-A; format: cell-based
Cryptococcus neoformans = assay: Broth microdilution antifungal susceptibility, NCCLS M38-A; conditions: 50% growth inhibition, range = minimum and maximum of multiple assays; for MIC C. neoformans 97-14: strain 97-14; for MIC C. neoformans 11239: strain 11239; for MIC C. neoformans 11240: strain 11240
Candida albicans = conditions: 50% growth inhibition, range = minimum and maximum of multiple assays; for MIC C. albicans 24433: strain 24433; for MIC C. albicans 90028: strain 90028

Compound | MIC0 A. flavus ATCC 204304 (A. flavus ATCC 204304) | MIC0 A. fumigatus ATCC 204305 (A. fumigatus ATCC 204305) | MIC B. dermatitidis Gu (Blastomyces dermatitidis) | MIC B. dermatitidis Kr (Blastomyces dermatitidis) | MIC B. dermatitidis V (Blastomyces dermatitidis) | MIC H. capsulatum G217B (Histoplasma capsulatum) | MIC H. capsulatum GS20 (Histoplasma capsulatum) | MIC F. solani 96-1 (Fusarium solani) | MIC S. apiospermum 94-54 (S. apiospermum) | MIC S. apiospermum 98-38 (S. apiospermum) | MIC S. apiospermum 98-89 (S. apiospermum) | MIC0 Tm [1] | MIC0 Mg (Microsporum gypseum) | MIC0 Ti [2] | MIC0 Ef (Epidermophyton floccosum) | MIC C. neoformans 97-14 (Cryptococcus neoformans) | MIC C. neoformans 11239 (Cryptococcus neoformans) | MIC C. neoformans 11240 (Cryptococcus neoformans) | MIC C. albicans 24433 (Candida albicans) | MIC C. albicans 90028 (Candida albicans) | further results
CC[C@H]1O[C@@H](/C(C)=C/[C@H](C)/C=C/[C@H]2[C@@H](C)[C@@H]2/C=C/[C@@H]2O[C@H](CC(=O)O)C[C@H](N(C)CCO)[C@H]2O)CC=C1C [I-n, (5S,6R)-5-(N-(2-hydroxyethyl)-methylamino)-6-hydroxypolyangioic acid] | 2 µg/mL | 1.4 µg/mL | 6.25 µg/mL (≈ 11.8 µM) | >12.5 µg/mL | >12.5 µg/mL | <0.19 µg/mL | <0.19 µg/mL | >16 µg/mL | >16 µg/mL | >16 µg/mL | 0.125 to 0.25 µg/mL | 8 µg/mL | 1.99 µg/mL | 1.25 µg/mL | 2 µg/mL | 0.25 µg/mL (≈ 0.47 µM) | 0.125 to 0.25 µg/mL | 0.125 to 0.25 µg/mL | >32 µg/mL | >32 µg/mL | MIC0 Tr (Trichophyton rubrum): 2.51 µg/mL; MIC0 Mc (Microsporum canis): 2.82 µg/mL
CC[C@H]1O[C@@H](/C(C)=C/[C@H](C)/C=C/[C@H]2[C@@H](C)[C@@H]2/C=C/[C@@H]2O[C@H](CC(=O)O)C[C@H](N(C)Cc3cccnc3)[C@H]2O)CC=C1C [I-w, (5S,6R)-5-(N-(3-pyridyl)methyl-methylamino)-6-hydroxypolyangioic acid] | 4 µg/mL | 4.25 µg/mL | – | – | – | – | – | >16 µg/mL | >16 µg/mL | >16 µg/mL | 2 µg/mL (≈ 3.46 µM) | – | – | – | – | 1 µg/mL (≈ 1.73 µM) | 0.5 µg/mL (≈ 0.864 µM) | 0.5 to 1 µg/mL | >32 µg/mL | >32 µg/mL | –
CC[C@H]1O[C@@H](/C(C)=C/[C@H](C)/C=C/[C@H]2[C@@H](C)[C@@H]2/C=C/[C@@H]2O[C@H](CC(=O)O)C[C@H](N(CC)CC)[C@H]2O)CC=C1C [I-z, (5S,6R)-5-(diethylamino)-6-hydroxypolyangioic acid] | 2.2 µg/mL | 2.1 µg/mL | >12.5 µg/mL | >12.5 µg/mL | >12.5 µg/mL | <0.19 µg/mL | <0.19 µg/mL | >16 µg/mL | >16 µg/mL | >16 µg/mL | 0.25 to 0.5 µg/mL | 4 µg/mL | 1.58 µg/mL | 0.79 µg/mL | 4 µg/mL | 0.5 to 1 µg/mL | 0.25 to 0.5 µg/mL | 0.5 µg/mL (≈ 0.944 µM) | >32 µg/mL | >32 µg/mL | MIC0 Tr (Trichophyton rubrum): 1.25 µg/mL; MIC0 Mc (Microsporum canis): 2 µg/mL
(5S,6R)-5-(N-(4-imidazolyl)methyl-methylamino)-6-hydroxypolyangioic acid [I-h] | 1.0 µg/mL | 2.1 µg/mL | – | – | – | – | – | >16 µg/mL | >16 µg/mL | >16 µg/mL | 0.125 to 0.25 µg/mL | – | – | – | – | 0.5 µg/mL | 0.25 µg/mL | 0.25 µg/mL | >32 µg/mL | >32 µg/mL | –
